How the values were obtained:
patients = assay: Peripheral blood counts of patients on VKA versus control patients; format: in vivo, human
From the text: For FIGS. 6C-6H: Data of patients on VKA were obtained from the French health care databases. Patients with hematological disease, inflammation or sepsis were excluded. Patients admitted to the hospital for dermatological problems without hematological disease or sepsis acted as controls.

human CD34+ cells = assay: Xenotransplantation of human CD34+ cells into warfarin-treated NSG mice; format: in vivo; settings: warfarin- vs vehicle-treated NSG mice, 6 weeks after transplantation, P=0.015
Experimental: (§1) 0.5 mg/kg/d or 0.05 mg/kg/d of warfarin, resuspended in phosphate-buffered saline was administered to mice via subcutaneously implanted osmotic minipumps (ALZET minipumps, Cupertino, CA). The osmotic minipumps were changed after 14 days (if the experiment went beyond 14 days of treatment). Sham operated (skin incision and suture) mice served as controls. Warfarin treatment continued for 10-14 days. In the xenotransplantation experiments the mice were treated with warfarin via the drinking water (or normal drinking water) at a dose of 0.72 mg/100 ml for a total of 3 days a week (Pfeilschifter et al., 2011).
For the xenotransplantation experiments, we intravenously injected 1.3×10^5 human CD34+ cells, obtained via magnetic separation by magnetic beads (Miltenyi Biotech, Bergisch Gladbach, Germany) from BM filters used after harvest of non-mobilized HSPC from healthy allogeneic donors, into irradiated (250 cGy) NSG mice, which had previously been treated with vehicle or warfarin for 14 days.
We assessed the complete blood count of vehicle or warfarin-treated mice using a complete blood count analyzer (Scil Vet ABC, Gurnee, IL). […] Engraftment of human cells in NSG mice was assessed using anti-human CD45 (BD Biosciences, San José, CA).

[1] = tested on: Lin− hematopoietic cells on stroma cells; assay: Cobblestone-formation and coculture assay of Lin− cells on stroma cells; format: cell-based, mice
Experimental: In the co-culture and cobblestone assays 20,000 Lin− cells were plated on stroma cells, which had been grown and expanded from vehicle- or warfarin-treated mice in medium (α-MEM medium supplemented with 20% fetal bovine serum, 1% penicillin/streptomycin, 1% L-Glutamine) containing vehicle or warfarin (2 μM). Conditioned medium was harvested from stroma from 5 mice grown in the above medium containing vehicle or warfarin for 7 days. Consequently, 100,000 Lin− cells were grown for 2-3 days in the conditioned medium and analyzed for cell counts by flow cytometry. Where indicated, the conditioned medium was concentrated using Microsep Advance Centrifugal Devices 30K Omega (Pall Life Sciences, Portsmouth, UK).
For all coculture assays hematopoietic and stroma cells were derived from the same mouse strain (C57/B16). Stroma cells were used after a maximum of two passages and when they were 70-80% confluent. Stroma cells were derived by crushing bones from mice, plating them in α-MEM medium containing 20% fetal calf serum, penicillin/strptomycin and by removing non-adherent hematopoietic cells the following day, as described (Mukherjee et al., 2008).

wildtype mice [2] = assay: Measurement of the INR of warfarin-treated mice; format: in vivo; settings: only at 0.5 mg/kg, vs sham-operated control mice, P=0.009
Experimental: as §1
A Coaguchek XS (Roche Diagnostics, Mannheim, Germany) and Coaguchek XS PT test strips were used to determine the INR of vehicle- and warfarin-treated mice.

wildtype mice [3] = assay: 5-fluorouracil-induced hematopoietic stress in warfarin-treated mice; format: in vivo
Experimental: as §1
5-fluorouracil was intraperitoneally injected every week at a dose of 75 mg/kg for a total of 4 doses or as a one time dose of 200 mg/kg. Recombinant mouse periostin (R&D Systems, Minneapolis, MN, cat. no. 2955-F2), produced in the Sf21 (baculovirus)-derived insect cell line, was administered intravenously at a dose of 2-4 μg per day and vitamin K was given at a dose of 15 mg/kg by oral gavage for four consecutive days.

periostin knockout mice = assay: Warfarin treatment of periostin knockout mice; format: in vivo
From the text: (§2) 7 to 10 week old C57BL6/N (CD45.2) or SJL (CD45.1; B6.SJL-Ptprca Pepcb/BoyJ), Col1a1 2.3 kb-GFP (kind gift from D. Rowe), Nestin-GFP (Mignone et al., 2004) and periostin knockout mice (kind gift from Juerg Huelsken) were used for these experiments. NOD SCID interleukin (IL)-2 receptor γ deficient (NSG) mice were purchased from Charles River Laboratories (Sulzfeld, Germany) and bred in our facility. All animal studies were approved by the local German government (Regierungspräsidium Darmstadt) in Hessen, Germany, and by the Institutional Animal Care and Use Committee (IACUC) of Boston University.
as §1
5-fluorouracil was intraperitoneally injected every week at a dose of 75 mg/kg for a total of 4 doses or as a one time dose of 200 mg/kg. […]

HSC = assay: Competitive, serial and limiting dilution transplantation assays of whole bone marrow; format: in vivo, mice
Experimental: SJL (CD45.1) donor mice were treated with vehicle or warfarin, euthanized and long bones were flushed, followed by RBC lysis (Life Technologies, Darmstadt, Germany). For competitive transplantation 2×10^6 total BM cells from SJL mice were co-transplanted with 1×10^6 CD45.2+ BM competitor cells into lethally irradiated (900 cGy) C57BL/6N (CD45.2+) recipient mice. For serial transplantation 2×10^6 total CD45.1+ BM cells were transplanted into lethally irradiated C57BL/6N recipient mice. Cell engraftment and chimerism were assessed by flow cytometry of peripheral blood leukocytes for CD45.1 and CD45.2 after 4, 8, 12 and 16 weeks post transplantation. In the limiting dilution experiment we treated primary CD45.1+ donor mice with vehicle or warfarin for 14 days and, consequently, transplanted 5×10^5, 12.5×10^4, 6×10^4 and 1.5×10^4 pooled BM cells into 5 CD45.2+ recipients per group adding 5×10^5 CD45.2+ supporter cells. In indicated experiments we transplanted 5,000 or 10,000 sorted CD45.1+ LKS cells from mice treated with vehicle or warfarin plus 1×10^6 CD45.2+ total BM supporter cells into CD45.2+ recipient mice.
Differences in survival were assessed by Kaplan-Meier non-parametric estimates (Log-rank test) and between groups by student's t-test. The data were presented as mean±s.d. We used L-Calc software (Stemcell Technologies, Vancouver, Canada) to calculate HSC frequency by Poisson statistics. P values≤0.05 were accepted as significant.

[4] = tested on: Nestin-GFP or Col2.3 kb GFP mice; assay: Enumeration of Nestin-GFP+ MSC and Col2.3 kb GFP+ osteoblastic cells in bones; format: in vivo; settings: warfarin 14 days
From the text: as §2, §1

Compound: CC(=O)CC(c1ccccc1)c1c(O)c2ccccc2oc1=O (stereo not shown) [warfarin]
- absolute number of leukocytes (patients; 282 patients on warfarin (P=0.0007) or 89 on fluindione (P=0.029) vs 145 control patients): significantly decreased
- absolute number of monocytes (patients; 282 patients on warfarin (P=0.004) or 89 on fluindione (P=0.046) vs 145 control patients): significantly decreased
- percentage of eosinophils (patients; 282 patients on warfarin vs 145 control patients, P=0.0027): significantly decreased
- percentage of basophils (patients; 282 patients on warfarin vs 145 control patients, P=0.007): significantly decreased
- platelets (patients; warfarin- or fluindione-treated patients): not reduced
- engraftment of human CD45+ leukocytes (human CD34+ cells): reduced engraftment
- annexin V+ dead hematopoietic cells in coculture with stroma cells ([1]; in the presence of warfarin vs vehicle, P=0.04): modest increase
- number of cobblestone-forming areas ([1]; untreated Lin− cells on previously warfarin-treated stroma, P=0.03): significantly decreased
- international normalized ratio (INR) (wildtype mice [2]): modest, but significant increase
- leukocyte counts after 5-fluorouracil (wildtype mice [3]; 7 days after one-time dose of 200 mg/kg 5-fluorouracil, P=0.03): lower
- survival (wildtype mice [3]; higher dose (0.5 mg/kg), 75 mg/kg 5-fluorouracil days 0, 7, 14, 21, P=0.0004 Log-rank): similarly shortened
- survival (wildtype mice [3]; lower dose (0.05 mg/kg), 75 mg/kg 5-fluorouracil days 0, 7, 14, 21, P=0.02 Log-rank): similarly shortened
- leukocyte counts or survival in periostin knockout mice after 5-fluorouracil (periostin knockout mice; repetitive doses of 75 mg/kg 5-fluorouracil): did not lead to lower leukocyte counts or decreased survival
- total leukocytes or monocytes in periostin knockout mice (periostin knockout mice; vs control periostin knockout mice): did not lead to a decrease
- function of whole bone marrow cells in serial transplantation (HSC; P=0.004 after tertiary transplantation): impaired function
- function of whole bone marrow cells in competitive transplantation (HSC; P=0.04 after 16 weeks): impaired function
- reduction of functional HSC in limiting dilution assay (HSC; warfarin-treated vs control mice, P=0.0006, L-Calc): 7.6 fold
- number of Col2.3 kb+ osteoblastic cells [4]: n.s. and no reduction
- number of Nestin+ MSC ([4]; P=0.047): significant reduction
